Consider one compound from paper PMC2700090 (Virology Journal, 2009).

As a reminder, the inhibition is the drop in the measured response relative to a control, in per cent.

This assay has as its target neuraminidase (NA) (Influenza A virus (A/Hong Kong/1073/99(H9N2)), UniProt Q9ICY2). Briefly: biochemical. The settings on record: read-out: % inhibition at 1000 μM.

The structures appear in SMILES notation. Peptide text beside a SMILES is read from it.

For the compound `C[C@@H](O)[C@H](NC(=O)[C@H](CCCCN)NC(=O)[C@H](CO)NC(=O)[C@H](CCCNC(=N)N)NC(=O)[C@H](Cc1ccccc1)NC(=O)[C@H](CC(=O)O)NC(=O)[C@@H](N)CC(N)=O)C(=O)O` [L-P1, NDFRSKT] (H-NDFRSKT-OH), the inhibition at 1000 µM was ~35%.
